Eight molecules from PubChem BioAssay (NCI) can be followed below.

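Briefly, cells in 96-well plates were exposed to five compound concentrations for 48 h, and endpoints were estimated by linear interpolation. Abbreviation: GI50, concentration required for 50% inhibition of growth. TGI: concentration producing complete growth inhibition.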

Common to all, as to assay: growth of human tumour cells (NCI), 48 h
In experiment [1] the test system is BT-549 breast.
Experiment [2] has as its system EKVX NSCLC.
The test system of experiment [3] is SK-MEL-5 melanoma.
The subject of experiment [4] is SR leukemia.
Experiment [5] has as its system A498 renal.
The test system of experiment [6] is MCF7 breast.
In experiment [7] the test system is HCT-15 colon.
Experiment [8] deals with SW-620 colon.
Experiment [9] deals with UACC-257 melanoma.
In experiment [10] the test system is SK-OV-3 ovarian.

As to `Nc1ncc(C2[C@H](CNC(=O)c3cc(Br)c[nH]3)C(CNC(=O)c3cc(Br)c[nH]3)[C@@H]2c2cnc(N)[nH]2)[nH]1` (stereo partly specified), the GI50 in [1] is 6.71 µM; in [2], 5.56 µM; in experiment [3], above 50 µM; in experiment [4], 25.1 µM; in [5] it was above 50 µM; in [6], above 50 µM. Further, the GI50 in experiment [7], in experiment [8] and in experiment [9] was above 50 µM in each case. Also, the TGI in [1] was above 50 µM; in experiment [2], 45.6 µM; in [3] it was above 50 µM; in experiment [4] it was above 50 µM; in [5], above 50 µM; in experiment [6], above 50 µM. In addition, the TGI in [7], in experiment [8] and in experiment [9] was above 50 µM in each case.

Turning to `C=CCN=C(N/N=C/c1ccc([N+](=O)[O-])o1)NS(=O)(=O)c1cc(C(=O)Nc2ccccc2)c(Cl)cc1SCC(N)=O`, the GI50 in experiment [10] is above 100 µM; in experiment [1], 10.4 µM; in [2] it was 22.9 µM; in experiment [3], 5.45 µM; in [5], 77.8 µM; in experiment [6], 25.2 µM. Moreover, the GI50 in [7] was above 100 µM; in experiment [8], 5.99 µM; in experiment [9], 19.5 µM. The TGI in experiment [10] was above 100 µM; in experiment [1], 31.8 µM; in experiment [2] it was above 100 µM; in experiment [3], 18.3 µM; in experiment [5], above 100 µM; in experiment [6], 77.6 µM. Moreover, the TGI in experiment [7] is above 100 µM; in [8], 37.4 µM; in experiment [9] it was 49 µM.

As to `O=C(OC[C@@H]1CO1)c1cccc2c(=O)c3ccccc3[nH]c12`, the GI50 in [1] is 0.338 µM; in experiment [2] it was 0.856 µM; in experiment [3], 0.21 µM; in experiment [4], 0.0604 µM; in experiment [5], 1.76 µM; in [6] it was 0.0469 µM. In addition, the GI50 was 0.307 µM in [7], 0.0649 µM in experiment [8] and 0.517 µM in [9]. Besides, the TGI in experiment [1] worked out at 2.86 µM; in experiment [2] it was 3.72 µM; in [3], 0.473 µM; in experiment [5] it was 3.56 µM; in experiment [6], 0.642 µM; in experiment [7] it was 3.36 µM. The TGI is 1.16 µM in experiment [8] and 4.31 µM in experiment [9].

As to `c1cncc(C2ONC3=NCCN32)c1` (stereo unspecified), the GI50 in experiment [10] is 26.2 µM; in experiment [1] it was 22.9 µM; in experiment [2], 23.2 µM; in [3] it was 23.6 µM; in experiment [5], 16.6 µM; in experiment [6], 17.5 µM. The GI50 in [7] was 11.5 µM; in experiment [8] it was 35.5 µM; in [9], above 100 µM. The TGI in experiment [10] was above 100 µM; in experiment [1], 70 µM; in [2], above 100 µM; in experiment [3], above 100 µM; in [5], 40.2 µM; in experiment [6], above 100 µM. For the same molecule, the figures for the TGI in [7], in [8] and in experiment [9] were 54.7 µM, above 100 µM and above 100 µM, respectively.

For the molecule `COc1cc(/C=C\c2cc(OC)c(OC)c(OC)c2)cc(NS(=O)(=O)c2ccc(Cl)cc2)c1OC`, the GI50 in experiment [10] is 0.449 µM; in experiment [1], 0.966 µM; in experiment [3], 0.297 µM; in experiment [4], 0.406 µM; in [5], 0.179 µM; in [6] it was 0.375 µM. In addition, the GI50 was 0.399 µM in experiment [7], 0.343 µM in [8] and 12.5 µM in experiment [9]. In addition, the TGI in experiment [10] is above 100 µM; in experiment [1], 77 µM; in experiment [3], 1.17 µM; in [4] it was 10.5 µM; in experiment [5], 0.832 µM; in experiment [6], above 100 µM. Besides, the TGI in experiment [7], in experiment [8] and in experiment [9] was above 100 µM in each case.

Take `OCC#Cc1ccccc1C#Cc1ccc(C#Cc2ccccc2)cc1`: the GI50 was 35.6 µM in [1]; 25.2 µM in [2]; 11.8 µM in experiment [3]; 11.5 µM in [4]; 15.6 µM in [5]; 15.9 µM in [6]. In addition, the GI50 in experiment [7] is 18.1 µM; in experiment [8] it was 17.2 µM; in experiment [9], 27.6 µM. In addition, the TGI in experiment [1] was above 100 µM; in experiment [2] it was 77.9 µM; in [3], 25.8 µM; in experiment [4], 44.8 µM; in experiment [5], 30.8 µM; in experiment [6], 38.3 µM. Also, the results for the TGI in experiment [7], in experiment [8] and in [9] were 38.5 µM, 44.4 µM and 69.8 µM, respectively.

`O=C1CCS/C(=N/S(=O)(=O)c2ccc(N3N=C4c5ccccc5CC4C3c3cccs3)cc2)N1Cc1ccccc1` (stereo unspecified): the GI50 in experiment [10] is 32.9 µM; in [1], 26.2 µM; in experiment [2], 25.7 µM; in experiment [3] it was 14.1 µM; in experiment [6] it was above 100 µM; in [7], 15.9 µM. Besides, the GI50 in experiment [8] was 24 µM; in experiment [9], 24.2 µM. Further, the TGI in experiment [10] is 79.6 µM; in experiment [1], 75.2 µM; in [2] it was 65.8 µM; in experiment [3] it was 28.8 µM; in experiment [6], above 100 µM; in experiment [7] it was 31.7 µM. Besides, the figures for the TGI in experiment [8] and in experiment [9] were 84.6 µM and 50.7 µM, respectively.

Consider `C=C1CC/C=C(\C)CC[C@H](C(=C)C)[C@@H](O)/C=C(/CO)CCC1O` (stereo partly specified), for which the GI50 in experiment [10] is above 100 µM; in experiment [1], 48.2 µM; in experiment [2] it was 60.4 µM; in experiment [3] it was 35.1 µM; in experiment [5], above 100 µM; in experiment [6], 21.4 µM. The GI50 in [7] is above 100 µM; in experiment [8], 72.8 µM; in experiment [9], above 100 µM. Moreover, the TGI in experiment [10], in experiment [1], in [2], in experiment [3], in experiment [5] and in [6] was above 100 µM in each case. The TGI in experiment [7], in experiment [8] and in experiment [9] was above 100 µM in each case.
